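Dose response: 5 concentrations. Exposure: 48 h. Format: 96-well plates. Endpoint: linear interpolation; highest concentration if not reached. GI50 = concentration required for 50% inhibition of growth.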 The source made the active and inactive calls. Rule as the data show it: active = GI50 up to about 1.1 µM and inactive = higher.

These results are taken from ChEMBL document CHEMBL1201862, “PubChem BioAssay data set” (2004).

Some test systems named below: MOLT-4; LOX IMVI; NCI-H23; TK-10; KM12; CAKI-1; SF-268; SR; CCRF-CEM; HT-29; T47D; HCT-116; M14; PC-3; SF-295; UO-31; SNB-19; HCC 2998; K562; NCI-H460.
What all share (assay): DTP human tumour cell line panel, 48 h

As a reminder, the GI50 is the concentration giving 50% growth inhibition. Regarding `CC(=O)CC(O)(C(F)(F)Cl)C(F)(F)Cl`, the GI50 in the test on MOLT-4, in the test on LOX IMVI, in the test on NCI-H23, in the test on TK-10, with KM12 and in the test with CAKI-1 was > 10 µM (inactive) throughout. The GI50 in the test on SF-268, in the test with SR, in the test with CCRF-CEM, in the test with HT-29, with T47D and in the test with HCT-116 was > 10 µM (inactive) in each case. The GI50 in the test on M14, with PC-3, with SF-295, in the test on UO-31, with SNB-19 and in the test with HCC 2998 was > 10 µM (inactive) in each case. The GI50 in the test on K562 and in the test with NCI-H460 was > 10 µM (inactive) throughout.
Turning to `CCN(CC)C(=S)N/N=C(/C)c1cccc(/C(C)=N\NC(=S)N(CC)CC)n1`, the GI50 is 1.66 µM (inactive) in the test with MOLT-4; 1.81 µM (inactive) in the test with LOX IMVI; 3.44 µM (inactive) in the test on NCI-H23; 1.27 µM (inactive) in the test with TK-10; 0.26 µM (active) with KM12; 1.29 µM (inactive) in the test with CAKI-1. Further, the GI50 with SF-268 was 0.334 µM (active); in the test with SR it was 0.32 µM (active); with CCRF-CEM, 0.389 µM (active); with HT-29 it was 3.52 µM (inactive); in the test on T47D, 4.88 µM (inactive); in the test on HCT-116, 2.8 µM (inactive). In addition, the GI50 is 1.38 µM (inactive) in the test on M14; 3.15 µM (inactive) in the test with PC-3; 1.66 µM (inactive) with SF-295; 1.95 µM (inactive) with UO-31; 4.39 µM (inactive) in the test with SNB-19; 3.9 µM (inactive) in the test on HCC 2998. The GI50 in the test with K562 was 2.67 µM (inactive); with NCI-H460 it was 1.53 µM (inactive).
Consider `CCN(CC)CCn1ccc(=O)c2cc3c(=O)ccn(CCN(CC)CC)c3c(C)c21`, for which the GI50 is 0.525 µM (active) with MOLT-4; 2.84 µM (inactive) in the test on LOX IMVI; 6.75 µM (inactive) in the test on NCI-H23; 7.43 µM (inactive) in the test with TK-10; 0.993 µM (active) with KM12; 7.4 µM (inactive) in the test with CAKI-1. The GI50 was 4.07 µM (inactive) in the test on SF-268; 1.26 µM (inactive) with SR; 1.77 µM (inactive) in the test on CCRF-CEM; 2.81 µM (inactive) with HT-29; 25.1 µM (inactive) with T47D; 1.82 µM (inactive) in the test with HCT-116. Also, the GI50 with M14 is 9.38 µM (inactive); in the test with PC-3 it was 4.79 µM (inactive); with SF-295, 4.47 µM (inactive); with UO-31, 5.07 µM (inactive); in the test with SNB-19, 5.15 µM (inactive); with HCC 2998 it was 1.44 µM (inactive). For the same compound, the GI50 in the test on K562 is 2.77 µM (inactive); with NCI-H460 it was 1.31 µM (inactive).
For the compound `COc1cccc2c1cc([N+](=O)[O-])c1c(C(=O)O)cc3c(c12)OCO3` [ARISTOLOCHIC ACID], the GI50 in the test on MOLT-4 was 26.7 µM (inactive); in the test with LOX IMVI, 35.5 µM (inactive); with NCI-H23 it was 39.4 µM (inactive); with TK-10, 46.9 µM (inactive); in the test on KM12, 27.3 µM (inactive); in the test on CAKI-1, 27.2 µM (inactive). The GI50 with SF-268 was 33.8 µM (inactive); in the test on SR, 21.7 µM (inactive); in the test with CCRF-CEM it was 20 µM (inactive); in the test on HT-29 it was 0.889 µM (active); with T47D, 50.1 µM (inactive); in the test with HCT-116 it was 29.9 µM (inactive). Besides, the GI50 with M14 was 43.9 µM (inactive); with PC-3 it was 46.5 µM (inactive); with SF-295, 32.4 µM (inactive); in the test on UO-31 it was 40.6 µM (inactive); in the test on SNB-19, 37.5 µM (inactive); with HCC 2998 it was 2.8 µM (inactive). Also, the GI50 is 33.9 µM (inactive) in the test on K562 and 27.7 µM (inactive) with NCI-H460.
In the case of `CC(=O)C1=C(C)N(c2ccccc2)C2(O)C3=C(C(=O)c4ccccc4C3=O)C(O)=CC12Cl` (stereo not given), the GI50 is 3.13 µM (inactive) in the test with MOLT-4; 3.56 µM (inactive) in the test on LOX IMVI; 6.55 µM (inactive) with NCI-H23; 14.4 µM (inactive) with TK-10; 4.17 µM (inactive) with KM12; 4.05 µM (inactive) in the test on CAKI-1. Moreover, the GI50 in the test with SF-268 is 6.73 µM (inactive); with SR it was 2.42 µM (inactive); in the test on CCRF-CEM, 0.65 µM (active); in the test on HT-29, 3.1 µM (inactive); in the test with T47D it was 35.2 µM (inactive); in the test on HCT-116 it was 5.96 µM (inactive). Besides, the GI50 is 7.03 µM (inactive) with M14; 7.28 µM (inactive) in the test on PC-3; 11.1 µM (inactive) in the test with SF-295; 5.07 µM (inactive) in the test on UO-31; 5.36 µM (inactive) in the test on SNB-19; 4.63 µM (inactive) in the test on HCC 2998. Also, the GI50 was 6.04 µM (inactive) in the test with K562 and 5.26 µM (inactive) in the test with NCI-H460.
As for `COC(=O)C1=C(C)NC(C)=C(C(=O)OCCCN2CCC(c3ccccc3)(c3ccccc3)CC2)[C@H]1c1cccc([N+](=O)[O-])c1` [NIGULDIPINE], the GI50 in the test with MOLT-4 was 1.95 µM (inactive); in the test with LOX IMVI, 1.62 µM (inactive); in the test with NCI-H23, 1.75 µM (inactive); with TK-10, 2.91 µM (inactive); in the test with KM12, 1.77 µM (inactive); with CAKI-1, 3.98 µM (inactive). For the same compound, the GI50 was 1.79 µM (inactive) in the test on SF-268; 2.26 µM (inactive) with SR; 1.14 µM (inactive) with CCRF-CEM; 1.3 µM (inactive) in the test with HT-29; 11.5 µM (inactive) in the test with T47D; 1.51 µM (inactive) in the test with HCT-116. The GI50 was 1.69 µM (inactive) in the test on M14; 1.52 µM (inactive) with PC-3; 1.73 µM (inactive) with SF-295; 2 µM (inactive) with UO-31; 1.7 µM (inactive) with SNB-19; 2.24 µM (inactive) in the test with HCC 2998. Also, the GI50 with K562 was 0.946 µM (active); in the test with NCI-H460, 1.81 µM (inactive).
In the case of `CN1CCN(c2ccc3[nH]c(-c4ccc5[nH]c(-c6ccc(N(C)CCCl)cc6)nc5c4)nc3c2)CC1`, the GI50 with MOLT-4 is 0.0127 µM (active); with LOX IMVI, 0.0311 µM (active); with NCI-H23 it was 0.25 µM (active); in the test on TK-10, 2.87 µM (inactive); with KM12, 0.811 µM (active); in the test on CAKI-1, 4.41 µM (inactive). The GI50 in the test with SF-268 is 0.0622 µM (active); in the test on SR, 0.0301 µM (active); in the test on CCRF-CEM, < 0.01 µM (active); with HT-29 it was 0.217 µM (active); in the test with T47D, 0.174 µM (active); with HCT-116 it was 0.239 µM (active). Moreover, the GI50 is 1.08 µM (active) with M14; 0.136 µM (active) with PC-3; 1.76 µM (inactive) in the test on SF-295; 18.7 µM (inactive) in the test on UO-31; 0.0538 µM (active) in the test on SNB-19; 0.461 µM (active) in the test with HCC 2998. In addition, the values for the GI50 in the test on K562 and in the test on NCI-H460 were 0.191 µM (active) and 0.222 µM (active), respectively.
On to `CC1OC(OCC2OC(Oc3ccc(C4CC(=O)c5c(O)cc(O)cc5O4)cc3O)C(O)C(O)C2O)C(O)C(O)C1O` (stereo not given), for which the GI50 with MOLT-4, in the test on LOX IMVI, in the test with NCI-H23, in the test on TK-10, in the test on KM12 and in the test with CAKI-1 was > 100 µM (inactive) throughout. For the same compound, the GI50 in the test with SF-268, in the test on SR, in the test on CCRF-CEM, with HT-29, in the test on T47D and in the test on HCT-116 was > 100 µM (inactive) throughout. The GI50 in the test with M14, in the test with PC-3, in the test with SF-295, in the test on UO-31, in the test on SNB-19 and with HCC 2998 was > 100 µM (inactive) throughout. Also, the GI50 with K562 and in the test with NCI-H460 was > 100 µM (inactive) in each case.
On to `CN1C(=O)c2ccccc2C(O)(c2ccccc2)C1(O)c1ccccc1` (stereo not given), for which the GI50 is 48.1 µM (inactive) in the test with MOLT-4; > 100 µM (inactive) with LOX IMVI; 81.8 µM (inactive) with NCI-H23; 68.7 µM (inactive) with TK-10; > 100 µM (inactive) with KM12; 43.4 µM (inactive) in the test on CAKI-1. Besides, the GI50 in the test with SF-268 was 55.5 µM (inactive); in the test on SR, 43 µM (inactive); in the test with CCRF-CEM it was > 100 µM (inactive); with HT-29, > 100 µM (inactive); in the test on T47D, 61.2 µM (inactive); in the test on HCT-116, 95.3 µM (inactive). Also, the GI50 in the test with M14 was > 100 µM (inactive); with PC-3 it was 52.6 µM (inactive); in the test on SF-295, > 100 µM (inactive); with UO-31 it was 32.5 µM (inactive); in the test with SNB-19 it was > 100 µM (inactive); with HCC 2998 it was 87.9 µM (inactive). Also, the GI50 with K562 was > 100 µM (inactive); in the test with NCI-H460, 19.2 µM (inactive).
As for `CNc1ccc2c(c1)Cc1ccccc1-2`, the GI50 in the test with MOLT-4 was 17 µM (inactive); in the test on LOX IMVI, 50.9 µM (inactive); in the test with NCI-H23 it was 75.2 µM (inactive); in the test on TK-10, 36.6 µM (inactive); in the test with KM12, 36.1 µM (inactive); in the test on CAKI-1 it was 30.6 µM (inactive). Moreover, the GI50 in the test on SF-268 is 44 µM (inactive); in the test on SR, 27 µM (inactive); in the test on CCRF-CEM, 59.2 µM (inactive); in the test on HT-29 it was 30.3 µM (inactive); with T47D, 24.1 µM (inactive); in the test with HCT-116, 56.2 µM (inactive). In addition, the GI50 in the test with M14 is 34.1 µM (inactive); in the test on PC-3 it was 32.7 µM (inactive); with SF-295, 47.2 µM (inactive); with UO-31 it was 31.1 µM (inactive); in the test on SNB-19, 13.6 µM (inactive); in the test on HCC 2998, 30.6 µM (inactive). Besides, the GI50 in the test with K562 is 31.1 µM (inactive); in the test on NCI-H460 it was 32.5 µM (inactive).
